# Reference: patent publication US10770169B2, “Method of providing a treatment to a subject based on a dynamic pathway map” (THE REGENTS OF THE UNIVERSITY OF CALIFORNIA, priority 2010, dated 2020)
# Tested on: panel of 55 breast cancer cell lines
# Assay: Cell growth inhibition assay (Cell Titer Glo, 72 h, 9 doses; GI50, TGI, LC50)
# Assay type: cell-based, human
# Details: for GI50: value is the negative log10 of mol/L
# [1] = BT20 cell line, censored GI50 values
# [2] = BT474 cell line, censored GI50 values
# [3] = BT483 cell line, censored GI50 values
# [4] = CAMA1 cell line, censored GI50 values
# [5] = HCC38 cell line, censored GI50 values
# [6] = HCC70 cell line, censored GI50 values
# [7] = HCC1187 cell line, censored GI50 values
# [8] = HCC1428 cell line, censored GI50 values
# [9] = HCC1500 cell line, censored GI50 values
# [10] = HCC1954 cell line, censored GI50 values
# [11] = HCC2185 cell line, censored GI50 values
# [12] = HCC3153 cell line, censored GI50 values
# [13] = MDAMB134VI cell line, censored GI50 values
# [14] = MDAMB175VII cell line, censored GI50 values
# [15] = MDAMB453 cell line, censored GI50 values
# [16] = MDAMB468 cell line, censored GI50 values
# [17] = SKBR3 cell line, censored GI50 values
# [18] = SUM52PE cell line, censored GI50 values
# [19] = SUM149PT cell line, censored GI50 values
# [20] = SUM1315MO2 cell line, censored GI50 values
# [21] = UACC812 cell line, censored GI50 values
# [22] = ZR75B cell line, censored GI50 values
compound,measurement,setting,value
N#Cc1c(NC(=O)c2cccc3ccccc23)sc2c1CCCC2 [TCS JNK 5a],GI50,[1],5.97
same,GI50,[2],4.17
same,GI50,[3],5.94
same,GI50,[4],5.48
same,GI50,[5],5.32
same,GI50,[6],5.64
same,GI50,"HCC1143 cell line, censored GI50 values",4.21
same,GI50,[7],6.08
same,GI50,"HCC1395 cell line, censored GI50 values",6.21
same,GI50,[8],4.61
same,GI50,[9],5.31
same,GI50,[10],5.90
same,GI50,[11],4.66
same,GI50,[12],5.59
same,GI50,[13],4.78
same,GI50,[14],5.02
same,GI50,[15],6.12
same,GI50,[16],4.37
same,GI50,[17],5.27
same,GI50,[18],4.86
same,GI50,[19],5.46
same,GI50,[20],6.31
same,GI50,[21],5.72
same,GI50,[22],4.59
same,GI50,cell line BT20,5.97
same,GI50,cell line BT474,4.17
same,GI50,cell line BT483,5.94
same,GI50,cell line CAMA1,5.48
same,GI50,cell line HCC38,5.32
same,GI50,cell line HCC70,5.64
same,GI50,cell line HCC1143,4.21
same,GI50,cell line HCC1187,6.08
same,GI50,cell line HCC1395,6.21
same,GI50,cell line HCC1428,4.61
same,GI50,cell line HCC1500,5.31
same,GI50,cell line HCC1806,3.92
same,GI50,cell line HCC1937,3.88
same,GI50,cell line HCC1954,5.90
same,GI50,cell line HCC2185,4.66
same,GI50,cell line HCC3153,5.59
Cc1cc(C(=O)N2CCN(c3cccc(Cl)c3)CC2)n(-c2ccccc2)n1 [XRP44X],GI50,"AU565 cell line, censored GI50 values",6.35
same,GI50,[1],5.29
same,GI50,[2],5.34
same,GI50,[3],4.18
same,GI50,[4],6.27
same,GI50,[5],5.85
same,GI50,[6],5.98
same,GI50,[7],6.23
same,GI50,[8],5.85
same,GI50,[9],5.74
same,GI50,"HCC1806 cell line, censored GI50 values",5.92
same,GI50,[10],6.30
same,GI50,[11],6.63
same,GI50,[12],5.95
same,GI50,"LY2 cell line, censored GI50 values",6.08
same,GI50,"MCF7 cell line, censored GI50 values",6.40
same,GI50,[13],6.21
same,GI50,[14],5.44
same,GI50,"MDAMB361 cell line, censored GI50 values",6.06
same,GI50,"MDAMB415 cell line, censored GI50 values",6.30
same,GI50,"MDAMB436 cell line, censored GI50 values",5.47
same,GI50,[15],6.20
same,GI50,[16],5.93
same,GI50,[17],5.58
same,GI50,[18],6.06
same,GI50,[19],5.63
same,GI50,"SUM159PT cell line, censored GI50 values",6.16
same,GI50,[20],6.11
same,GI50,"T47D cell line, censored GI50 values",5.29
same,GI50,[21],6.30
same,GI50,[22],5.90
same,GI50,"ZR751 cell line, censored GI50 values",5.90
same,GI50,cell line AU565,6.35
same,GI50,cell line BT20,5.29
same,GI50,cell line BT474,5.34
same,GI50,cell line BT483,4.18
same,GI50,cell line CAMA1,6.27
same,GI50,cell line HCC38,5.85
same,GI50,cell line HCC70,5.98
same,GI50,cell line HCC1187,6.23
same,GI50,cell line HCC1419,3.88
same,GI50,cell line HCC1428,5.85
same,GI50,cell line HCC1500,5.74
same,GI50,cell line HCC1806,5.92
same,GI50,cell line HCC1937,3.88
same,GI50,cell line HCC1954,6.30
same,GI50,cell line HCC2185,6.63
same,GI50,cell line HCC3153,5.95
same,GI50,cell line LY2,6.08
same,GI50,cell line MCF7,6.40
same,GI50,cell line MDAMB134V,6.21
same,GI50,cell line MDAMB175V,5.44
same,GI50,cell line MDAMB361,6.06
same,GI50,cell line MDAMB415,6.30
same,GI50,cell line MDAMB436,5.47
same,GI50,cell line MDAMB453,6.20
same,GI50,cell line MDAMB468,5.93
same,GI50,cell line SKBR3,5.58
same,GI50,cell line SUM52PE,6.06
same,GI50,cell line SUM149PT,5.63
same,GI50,cell line SUM159PT,6.16
same,GI50,cell line SUM1315MO,6.11
same,GI50,cell line T47D,5.29
same,GI50,cell line UACC812,6.30
same,GI50,cell line ZR75B,5.90
same,GI50,cell line ZR751,5.90
COc1cc2c(Nc3ccc(NC(=O)c4ccccc4)cc3)ncnc2cc1OCCCN1CCOCC1 [ZM447439],GI50,"cell line AU565, censored GI50 values",5.82
same,GI50,"cell line BT20, censored GI50 values",5.29
same,GI50,"cell line BT474, censored GI50 values",4.20
same,GI50,"cell line BT483, censored GI50 values",4.57
same,GI50,"cell line CAMA1, censored GI50 values",5.40
same,GI50,"cell line HCC38, censored GI50 values",6.24
same,GI50,"cell line HCC70, censored GI50 values",6.01
same,GI50,"cell line HCC1143, censored GI50 values",4.98
same,GI50,"cell line HCC1187, censored GI50 values",6.19
same,GI50,"cell line HCC1419, censored GI50 values",5.32
same,GI50,"cell line HCC1428, censored GI50 values",5.13
same,GI50,"cell line HCC1500, censored GI50 values",5.28
same,GI50,"cell line HCC1937, censored GI50 values",5.23
same,GI50,"cell line HCC2185, censored GI50 values",5.92
same,GI50,"cell line MDAMB134VI, censored GI50 values",4.66
same,GI50,"cell line MDAMB175VII, censored GI50 values",4.28
same,GI50,"cell line MDAMB361, censored GI50 values",5.53
same,GI50,"cell line MDAMB436, censored GI50 values",5.33
same,GI50,"cell line MDAMB468, censored GI50 values",6.18
same,GI50,"cell line SKBR3, censored GI50 values",4.77
same,GI50,"cell line SUM52PE, censored GI50 values",5.40
same,GI50,"cell line SUM185PE, censored GI50 values",4.50
same,GI50,"cell line T47D, censored GI50 values",4.94
same,GI50,"cell line UACC812, censored GI50 values",4.88
same,GI50,"cell line ZR75B, censored GI50 values",5.00
same,GI50,"cell line ZR751, censored GI50 values",5.46
COc1cc2c(Nc3ccc(NC(=O)c4ccccc4)cc3)ncnc2cc1OCCCN1CCOCC1 [ZM 447439],GI50,cell line AU565,5.82
same,GI50,cell line BT20,5.29
same,GI50,cell line BT474,4.20
same,GI50,cell line BT483,4.57
same,GI50,cell line CAMA1,5.40
same,GI50,cell line HCC38,6.24
same,GI50,cell line HCC70,6.01
same,GI50,cell line HCC1143,4.98
same,GI50,cell line HCC1187,6.19
same,GI50,cell line HCC1419,5.32
same,GI50,cell line HCC1428,5.13
same,GI50,cell line HCC1500,5.28
same,GI50,cell line HCC1937,5.23
same,GI50,cell line HCC1954,4.48
same,GI50,cell line HCC2185,5.92
same,GI50,cell line HCC3153,4.48
same,GI50,cell line MDAMB134V,4.66
same,GI50,cell line MDAMB175V,4.28
same,GI50,cell line MDAMB361,5.53
same,GI50,cell line MDAMB415,4.48
same,GI50,cell line MDAMB436,5.33
same,GI50,cell line MDAMB453,4.45
same,GI50,cell line MDAMB468,6.18
same,GI50,cell line SKBR3,4.77
same,GI50,cell line SUM52PE,5.40
same,GI50,cell line SUM149PT,4.18
same,GI50,cell line SUM185PE,4.50
same,GI50,cell line SUM1315MO,4.48
same,GI50,cell line T47D,4.94
same,GI50,cell line UACC812,4.88
same,GI50,cell line ZR75B,5.00
same,GI50,cell line ZR751,5.46
O=c1cc(-c2ccccc2)oc2cc(O)c(O)c(O)c12 [baicalein],variability in cell line response,across the cell line panel,variability in cell line response was minimal
